The values below come from US20220213099A1, “PRODRUG COMPOUNDS” (BRISTOL-MYERS SQUIBB COMPANY, priority 2019, published 2022).

Data set [1] is described as follows: Stability evaluation in aqueous buffer. It counts as physicochemical. As to conditions: about 50 μg/mL, about 15% v/v acetonitrile; for half-life: aqueous buffer, 37° C. Here is the method: The stability study of an individual prodrug was conducted with about 50 μg/mL solutions in aqueous buffers of pH 1 (0.1 M HCl), 4 (acetate buffer) and 6.5 (phosphate buffer) at 37° C. for 24 hours. About 15% v/v acetonitrile was used in these pH buffers as a co-solvent to obtain clear solutions of prodrugs. The sample analysis was carried out using a generic reversed phase liquid chromatographic (LC) method with UV detection. The area percent (AP) loss of the prodrug peak was quantified as a function of time. The appearance of parent peak was identified from the chromatographic retention time. The half-life (t1/2, h) of the prodrug was calculated by using a pseudo-first order equation from a AP loss vs time plot.

The nature of data set [2]: Solubility evaluation in aqueous buffer. In kind it is physicochemical. The conditions noted are these: for solubility: aqueous buffer, 25 °C, thermodynamic from solid. Here is the method: The solid powder of an individual prodrug was equilibrated in aqueous buffers of pH 1, 4 and 6.5 at 25° C. for about 24 hours. After equilibration, the excess solid was separated by filtration using 0.45 μm membrane filter and the filtrate was collected in suitable glass vial. The filtrate was diluted appropriately using respective buffers/diluent and analyzed by a reversed phase LC method with UV detection.

[3] abbreviates: pH 1, pH 1 (0.1 M HCl), read-out: Stability (t1/2, h) at 37° C. pH 1 (converted).
The mark [4] stands for this setting: pH 4, pH 4 (acetate buffer), read-out: Stability (t1/2, h) at 37° C. pH 4 (converted).
The mark [5] stands for this setting: pH 6.5, pH 6.5 (phosphate buffer), read-out: Stability (t1/2, h) at 37° C. pH 6.5 (converted).
Where [6] appears, read: aqueous buffer pH 4, 25° C., about 24 hours equilibration, ditrifluoroacetate.
Where [7] appears, read: aqueous buffer pH 6.5, 25° C., about 24 hours equilibration, ditrifluoroacetate.
Setting [8] is: pH 1, simulated gastric fluid, aqueous buffer pH 1, 25° C., about 24 hours equilibration, read-out: Solubility (mg/mL) at 25° C. pH 1.
Where [9] appears, read: pH 4, aqueous buffer, aqueous buffer pH 4, 25° C., about 24 hours equilibration, read-out: Solubility (mg/mL) at 25° C. pH 4.
Setting [10] is: pH 6.5, aqueous buffer, aqueous buffer pH 6.5, 25° C., about 24 hours equilibration, read-out: Solubility (mg/mL) at 25° C. pH 6.5.

Values after ≈ are worked out from the molar mass of the structure shown. Counter-ions that a name gives are not always drawn. Like-named read-outs stand apart in the source and are kept apart here.

`Cc1c(-c2c(C(C)C)c3cc(C4CCN(CC(N)=O)CC4)ccc3n2C(=O)OC(C)OC(=O)C2(N)CC2)cn2ncnc2c1C` (single isomer, unassigned) [Example 6, 1-((1-Aminocyclopropane-1-carbonyl)oxy)ethyl 5-(1-(2-amino-2-oxoethyl)piperidin-4-yl)-2-(7,8-dimethyl-[1,2,4]triazolo[1,5-a]pyridin-6-yl)-3-isopropyl-1H-indole-1-carboxylate ditrifluoroacetate]: the results for the half-life in data set [1] (setting [3]), in data set [1] (setting [4]) and in data set [1] (setting [5]) were > 500 h, 415 h and 108 h, respectively. The “Solubility (mg/mL) at 25° C. pH 4” value in data set [2] (setting [6]) came to 0.52 mg/mL. Besides, the “Solubility (mg/mL) at 25° C. pH 6.5” value in data set [2] (setting [7]) is recorded as >1.22 mg/mL. Also, the solubility in data set [2] (setting [8]) is > 1.32 mg/mL.
Consider `Cc1c(-c2c(C(C)C)c3cc(C4CCN(CC(N)=O)CC4)ccc3n2C(=O)OC(C)OC(=O)C2(N)CC2)cn2ncnc2c1C` (single isomer, unassigned) [Example 7, 1-((1-Aminocyclopropane-1-carbonyl)oxy)ethyl 5-(1-(2-amino-2-oxoethyl)piperidin-4-yl)-2-(7,8-dimethyl-[1,2,4]triazolo[1,5-a]pyridin-6-yl)-3-isopropyl-1H-indole-1-carboxylate ditrifluoroacetate], for which the “Stability (t1/2, h) at 37° C. pH 1” value in data set [1] (pH 1 (0.1 M HCl)) was >500 h. The “Stability (t1/2, h) at 37° C. pH 4” value in data set [1] (pH 4 (acetate buffer), ditrifluoroacetate) was >500 h. Moreover, the “Stability (t1/2, h) at 37° C. pH 6.5” value in data set [1] (pH 6.5 (phosphate buffer), ditrifluoroacetate) came out at 193 h. Besides, the “Solubility (mg/mL) at 25° C. pH 1” value in data set [2] (aqueous buffer pH 1, 25° C., about 24 hours equilibration, ditrifluoroacetate) is >1.49 mg/mL. For the same molecule, the “Solubility (mg/mL) at 25° C. pH 4” value in data set [2] (setting [6]) is given as >1.21 mg/mL. In addition, in data set [2] (setting [7]), the “Solubility (mg/mL) at 25° C. pH 6.5” value amounted to 0.34 mg/mL.
In the case of `Cc1c(-c2[nH]c3ccc(C4CC[N+](COC(=O)N(C)CCOP(=O)(O)O)(CC(N)=O)CC4)cc3c2C(C)C)cn2ncnc2c1C` (single isomer, unassigned) [Example 20, 1-(2-Amino-2-oxoethyl)-4-(2-(7,8-dimethyl-[1,2,4]triazolo[1,5-a]pyridin-6-yl)-3-isopropyl-1H-indol-5-yl)-1-(((methyl(2-(phosphonooxy)ethyl)carbamoyl)oxy)methyl) piperidin-1-ium trifluoroacetate], the half-life in data set [1] (setting [3]), in data set [1] (setting [4]) and in data set [1] (setting [5]) was > 500 h each time. Moreover, the solubility was > 1.16 mg/mL in data set [2] (setting [8]), > 1.87 mg/mL in data set [2] (setting [9]) and > 2.08 mg/mL in data set [2] (setting [10]).
For `Cc1c(-c2[nH]c3ccc(C4CCN(CC(N)=O)CC4)cc3c2C(C)C)cn2nc[n+](COC(=O)N(C)CCOP(=O)(O)O)c2c1C` (single isomer, unassigned) [Example 21, 6-(5-(1-(2-amino-2-oxoethyl)piperidin-4-yl)-3-isopropyl-1H-indol-2-yl)-7,8-dimethyl-1-(((methyl(2-(phosphonooxy)ethyl)carbamoyl)oxy)methyl)-[1,2,4]triazolo[1,5-a]pyridin-1-ium trifluoroacetate], the half-life in data set [1] (setting [3]), in data set [1] (setting [4]) and in data set [1] (setting [5]) was > 500 h throughout. Further, the solubility in data set [2] (setting [8]) was > 1.75 mg/mL; in data set [2] (setting [9]) it was 0.25 mg/mL; in data set [2] (setting [10]) it was 0.55 mg/mL.
Take `Cc1c(-c2[nH]c3ccc(C4CCN(CC(N)=O)CC4)cc3c2C(C)C)cn2ncnc2c1C` [Compound A, 2-(4-(2-(7,8-dimethyl-[1,2,4]triazolo[1,5-a]pyridin-6-yl)-3-isopropyl-1H-indol-5-yl)piperidin-1-yl)acetamide, reference compound]: the values for the solubility in data set [2] (setting [8]), in data set [2] (setting [9]) and in data set [2] (setting [10]) were 1.56 mg/mL (≈ 3510 µM), 0.05 mg/mL (≈ 112 µM) and < 0.01 mg/mL, respectively. In data set [2] (pH of 1 versus pH of 4 or pH of 6), the “pH dependence of aqueous solubility” value is recorded as “higher solubility at pH of 1 than at pH of 4 or pH of 6”.
As for `Cc1c(-c2c(C(C)C)c3cc(C4CCN(CC(N)=O)CC4)ccc3n2C(=O)OC[C@@H]2CCCCN2)cn2ncnc2c1C` [Example 1, (S)-Piperidin-2-ylmethyl 5-(1-(2-amino-2-oxoethyl)piperidin-4-yl)-2-(7,8-dimethyl-[1,2,4]triazolo[1,5-a]pyridin-6-yl)-3-isopropyl-1H-indole-1-carboxylate], the half-life is > 500 h in data set [1] (setting [3]), > 500 h in data set [1] (setting [4]) and 218 h in data set [1] (setting [5]). The solubility in data set [2] (setting [8]) is > 1.74 mg/mL; in data set [2] (setting [9]), > 1.28 mg/mL; in data set [2] (setting [10]) it was > 1.34 mg/mL.
As to `Cc1c(-c2c(C(C)C)c3cc(C4CCN(CC(N)=O)CC4)ccc3n2C(=O)OC[C@@H]2CCCCN2C(=O)OCOP(=O)(O)O)cn2ncnc2c1C` [Example 2, (S)-(1-(((Phosphonooxy)methoxy)carbonyl)piperidin-2-yl)methyl 5-(1-(2-amino-2-oxoethyl)piperidin-4-yl)-2-(7,8-dimethyl-[1,2,4]triazolo[1,5-a]pyridin-6-yl)-3-isopropyl-1H-indole-1-carboxylate], the half-life in data set [1] (setting [3]) was 248 h; in data set [1] (setting [4]), 283 h; in data set [1] (setting [5]) it was 267 h. Also, the solubility was > 1.17 mg/mL in data set [2] (setting [8]), 0.24 mg/mL (≈ 324 µM) in data set [2] (setting [9]) and 0.43 mg/mL (≈ 581 µM) in data set [2] (setting [10]).
With `Cc1c(-c2c(C(C)C)c3cc(C4CCN(CC(N)=O)CC4)ccc3n2C(=O)OC[C@@H]2CCCN2)cn2ncnc2c1C` [Example 3, (S)-Pyrrolidin-2-ylmethyl 5-(1-(2-amino-2-oxoethyl)piperidin-4-yl)-2-(7,8-dimethyl-[1,2,4]triazolo[1,5-a]pyridin-6-yl)-3-isopropyl-1H-indole-1-carboxylate], the half-life in data set [1] (setting [3]) was > 500 h; in data set [1] (setting [4]) it was > 500 h; in data set [1] (setting [5]), 99 h. The solubility in data set [2] (setting [8]) is > 2.43 mg/mL; in data set [2] (setting [9]) it was > 2.68 mg/mL; in data set [2] (setting [10]), > 2.44 mg/mL.
In the case of `Cc1c(-c2c(C(C)C)c3cc(C4CCN(CC(N)=O)CC4)ccc3n2C(=O)OC[C@@H]2CCCN2C(=O)OCOP(=O)(O)O)cn2ncnc2c1C` [Example 4, (S)-(1-(((Phosphonooxy)methoxy)carbonyl)pyrrolidin-2-yl)methyl 5-(1-(2-amino-2-oxoethyl)piperidin-4-yl)-2-(7,8-dimethyl-[1,2,4]triazolo[1,5-a]pyridin-6-yl)-3-isopropyl-1H-indole-1-carboxylate], the half-life was 231 h in data set [1] (setting [3]), 257 h in data set [1] (setting [4]) and 231 h in data set [1] (setting [5]). Moreover, the values for the solubility in data set [2] (setting [8]), in data set [2] (setting [9]) and in data set [2] (setting [10]) were > 1.64 mg/mL, 0.91 mg/mL (≈ 1250 µM) and 0.66 mg/mL (≈ 909 µM), respectively.
With `CNCC(=O)OCc1cccnc1N(C)C(=O)OC[N+]1(CC(N)=O)CCC(c2ccc3[nH]c(-c4cn5ncnc5c(C)c4C)c(C(C)C)c3c2)CC1` (stereo not shown) [Example 12, 1-(2-Amino-2-oxoethyl)-4-(2-(7,8-dimethyl-[1,2,4]triazolo[1,5-a]pyridin-6-yl)-3-isopropyl-1H-indol-5-yl)-1-(((methyl(3-(((methylglycyl)oxy)methyl)pyridin-2-yl)carbamoyl)oxy)methyl)piperidin-1-ium ditrifluoroacetate], the half-life in data set [1] (setting [3]) is > 500 h; in data set [1] (setting [4]), 99 h; in data set [1] (setting [5]) it was 1.6 h.
In the same order, the values of `CNCC(=O)OCc1cccnc1N(C)C(=O)OC[n+]1cnn2cc(-c3[nH]c4ccc(C5CCN(CC(N)=O)CC5)cc4c3C(C)C)c(C)c(C)c21` [Example 13, 6-(5-(1-(2-Amino-2-oxoethyl)piperidin-4-yl)-3-isopropyl-1H-indol-2-yl)-7,8-dimethyl-1-(((methyl(3-(((methylglycyl)oxy)methyl)pyridin-2-yl)carbamoyl)oxy)methyl)-[1,2,4]triazolo[1,5-a]pyridin-1-ium tritrifluoroacetate] are 459 h, 99 h and 2.5 h.
As to `Cc1c(-c2c(C(C)C)c3cc(C4CCN(CC(N)=O)CC4)ccc3n2C(=O)OCOP(=O)(O)O)cn2ncnc2c1C` [Example 16, (Phosphonooxy)methyl 5-(1-(2-amino-2-oxoethyl)piperidin-4-yl)-2-(7,8-dimethyl-[1,2,4]triazolo[1,5-a]pyridin-6-yl)-3-isopropyl-1H-indole-1-carboxylate], the half-life in data set [1] (setting [3]) is 80 h; in data set [1] (setting [4]), 7.5 h; in data set [1] (setting [5]), 0.1 h.
The corresponding values for `Cc1c(-c2c(C(C)C)c3cc(C4CCN(CC(N)=O)CC4)ccc3n2P(=O)(O)O)cn2ncnc2c1C` [Example 18, (5-(1-(2-Amino-2-oxoethyl)piperidin-4-yl)-2-(7,8-dimethyl-[1,2,4]triazolo[1,5-a]pyridin-6-yl)-3-isopropyl-1H-indol-1-yl)phosphonate] are 6.4 h, 2.9 h and 6.3 h.
